In patent publication US5128354A, “Agent for treating ischemic brain damage” (priority 1987, dated 1992):
Where two headings read alike, the source gives them in different places.

Legend:
cerebral hypoxia [1] = experiment: Prolonging effect on the persistent time of gasping movements in complete ischemia; format: in vivo, mice (STD-ddY strain, male); conditions: for ED (15% prolongation): Mus musculus, po, read-out: Complete ischemia PD15 (dose which prolonged the persistent time of gasping movements by 15%)
Description: (§1) Protective effect on cerebral hypoxia
(1) Prolonging effect on the persistent time of gasping movements in complete ischemia
This test was carried out according to the method described in Arch. int. Pharmacodyn., 233, 136-144 (1978).
Male mice of STD-ddY strain weighing 22-26 g were used in groups of 5 animals. A prescribed amount of test compounds, suspended in a 0.5% aqueous tragacanth solution, was orally administered to mice at a volume of 0.1 ml per 10 g of body weight. Two hours or one hour (for carbamazepine) after the administration of test compounds, the necks of the animals were cut with scissors for decapitation. The persistent time of gasping movements in the isolated heads was measured. To control group was orally administered only the same volume of a 0.5% aqueous tragacanth solution. The PD15 was calculated from the dose-activity relationship. The PD15 means the dose of a test compound which prolonged the persistent time of gasping movements by 15% in comparison with that of control group.

cerebral hypoxia [2] = experiment: Prolonging effect on survival time of mice in normobaric hypoxia; format: in vivo, mice (STD-ddY strain, male); conditions: Mus musculus, po, read-out: Normobaric hypoxia PD30 (dose which prolonged the survival time by 30%)
Description: as §1
(2) Prolonging effect on survival time of mice in normobaric hypoxia
This test was carried out according to the method described in Naunyn-Schmiedeberg's Arch. Pharmacol., 334, 282-289 (1986).
Male mice of STD-ddY strain weighing […] were used in groups of 5 animals. A prescribed amount of test compounds, suspended in a 0.5% aqueous tragacanth solution, was orally administered to mice at a volume of 0.1 ml per 10 g of body weight. Two hours or one hour (for carbamazepine) after the administration of test compounds, each animal was taken in a 2.5-liter plastic chamber, and a mixed gas of 4% oxygen and 96% nitrogen was passed through the chamber at a rate of 4 liters/minute. There was measured the time to the death (respiratory cessation) of the animal. To control group was orally administered only the same volume of a 0.5% aqueous tragacanth solution. The PD30 was calculated from the dose-activity relationship. The PD30 means the dose of a test compound which prolonged the survival time by 30% in comparison with that of control group.

[3] = system: delayed neuronal death in the gerbil hippocampal CA1 subfield; experiment: Protective effect on delayed neuronal death in the gerbil hippocampus following a transient ischemia; format: in vivo, Mongolian gerbils (male); conditions: p.o.; for CA1 neuronal density: ± S.E., 5 min occlusion, 4 days after
Description: Protective effect on delayed neuronal death in the gerbil hippocampus following a transient ischemia
This test was carried out according to the method described in Brain Res., 239, 57-69 (1982).
Male Mongolian gerbils weighing 65-85 g were used in groups of 5 or 6 animals. A prescribed amount of test compounds, suspended in a 0.5% aqueous tragacanth solution, was orally administered to animals at a volume of 0.2 ml per 100 g of body weight. To control group was orally administered only the same volume of 0.5% aqueous tragacanth solution. One hour after the administration of test compounds, the necks of the gerbils were opened by a mid line incision under ether anesthesia, and then the bilateral common carotid arteries were exposed and occluded with Zen clips to block the blood flow. After 5 minutes, the clips were released and the blood flow was restored. Animals for the sham-operated group were operated in the same manner as above except that the occlusion of the carotid arteries. After 4 days, the animals were anesthetized with pentobarbital and fixed by transcardiac perfusion with a fixative solution containing 2.5% glutaraldehyde and 2% formaldehyde in 0.1M phosphate buffer (pH 7.4) at a pressure of 120 cm H2 O, and then the brains were removed. After the isolated brains were kept in the same fixative solution as above overnight, they were cut into coronal sections which contained the hippocampal area 0.5-1.0 mm posterior to the most rostral tip of the hippocampus or 1.4-1.9 mm posterior to bregma. Dissected brains were dehydrated and then embedded in paraffin. From the paraffin block, 4 μm-thin sections were prepared and subjected to hematoxylin-eosin staining.
The number of morphologically intact neurons remaining in the hippocampal CA1 subfield of the above tissue specimen was measured using a computer-image digitizer (Image Research Inc., Canada, MCID model) at a magnification of 200×, and neuronal density per mm^2 area of the right and left hippocampus, namely, the CA1 neuronal density, was calculated.
The value of the CA1 neuronal density in the table was calculated based on the average of the numbers of the remaining neurons in the right and left hippocampus of each animal. Student's t-test was used for the statistical analysis.

[4] = Hypnonarcotic activity (loss of righting reflex); set-up: species or system mice (STD-ddY strain, male); conditions: mouse, in vivo, po
Description: (§2) This test was carried out according to the method described in Japan. J. Pharmacol., 13, 259-273 (1963).
(§3) Male mice of STD-ddY strain weighing 22-26 g were used in groups of 5-10 animals. A prescribed amount of test compounds, suspended in a 0.5% aqueous tragacanth solution, was orally administered to mice at a volume of 0.1 ml per 10 g of body weight. […] The HD50 was calculated by Probit method. The HD50 means the dose of a test compound which produced hypnonarcotic effect in 50% of animals.

[5] = Arch. int. Pharmacodyn., 286, 282-298 (1987); cited from earlier work
in vivo = format: in vivo; conditions: mouse, in vivo, po; mice, p.o.; mortality observed for 7 days; Probit method; read-out: Acute toxicity LD50
Description: (§4) Male mice of STD-ddY strain weighing 22-26 g were used in groups of 5-10 animals. A prescribed amount of test compounds, suspended in a 0.5% aqueous tragacanth solution, was orally administered to mice at a volume of 0.2 ml per 10 g of body weight.

mice [6] = experiment: Hypnonarcotic activity (loss of righting reflex); set-up: species or system mice (STD-ddY strain, male); conditions: mouse, in vivo, po, 200 mg/kg
Description: as §2, §3

mice [7] = experiment: in vivo; format: in vivo; conditions: p.o.
Description: as §4

[8] = mice, p.o., 2 h (1 h for carbamazepine) after administration
[9] = mice, p.o., 4% oxygen/96% nitrogen, 2 h (1 h for carbamazepine) after administration

| SMILES | ED (15% prolongation) (cerebral hypoxia [1]; [8]) [mg/kg] | ED (30% prolongation) (cerebral hypoxia [2]; [9]) [mg/kg] | CA1 neuronal density ([3]; 10 mg/kg) | CA1 neuronal density ([3]; 30 mg/kg) | protective effect on delayed neuronal death (in words) ([3]; 100 mg/kg) | CA1 neuronal density ([3]; 100 mg/kg) | TD50 ([4]; mice, p.o., righting reflex lost for 60 minutes or more, Probit method, read-out: Hypnonarcotic activity HD50 (dose which produced hypnonarcotic effect in 50% of animals)) [mg/kg] | effect against cerebral hypoxia (in words) [5] | ED (15% prolongation) (cerebral hypoxia [1]) [mg/kg] | ED (30% prolongation) (cerebral hypoxia [2]) [mg/kg] | LD50 at 168 h (in vivo) [mg/kg] | TD50 [4] [mg/kg] | Clonic convulsion and death (mice [6]) | protective effects on cerebral hypoxia compared with reference drugs (Table 1) (cerebral hypoxia [1]; mice, p.o., complete ischemia and normobaric hypoxia (also A2)) | protective effect on delayed neuronal death (in words) ([3]; 30 mg/kg) | toxicity (in words) (mice [7]) |
| --- | --- | --- | --- | --- | --- | --- | --- | --- | --- | --- | --- | --- | --- | --- | --- | --- |
| NC(=O)N1c2ccccc2C=Cc2ccccc21 [Carbamazepine] | 5.5 | 19.6 | 482 ± 272 number of cells/mm^2 | 932 ± 353 number of cells/mm^2 | relatively weak protective effect | 1235 ± 330 number of cells/mm^2 | 345 | effective against cerebral hypoxia |  |  |  |  |  |  |  |  |
| CCC1(c2ccccc2)C(=O)NC(=O)NC1=O [Phenobarbital] |  |  |  |  |  |  |  |  | 15 | 26.8 | 201 |  |  |  |  |  |
| O=C1NC(=O)C(c2ccccc2)(c2ccccc2)N1 [Phenytoin] | 5.5 | 22.7 |  | 228 ± 87 number of cells/mm^2 | relatively weak protective effect | 1464 ± 503 number of cells/mm^2 |  | effective against cerebral hypoxia |  |  |  | > 200 | convulsion in all mice and of death in some mice |  |  |  |
| NS(=O)(=O)Cc1noc2ccccc12 [The active compound of the invention, 3-Sulfamoylmethyl-1,2-benzisoxazole] |  |  | 519 ± 28 number of cells/mm^2 | 2713 ± 228 number of cells/mm^2 | almost completely prevented the delayed neuronal death | 3326 ± 49 number of cells/mm^2 |  |  | 6 | 29.4 | 1890 | 934 |  | comparable to those of phenobarbital, phenytoin and carbamazepine | extremely strong protective effect | weak |
